What follows are compounds tested against T1, hGPR40 (Homo sapiens, UniProt O14842) (assay: Calcium flux assay to detect GPR40 activation). Conditions: CHO-K cells stably expressing hGPR40; Fluo-4 NW; read for 4 min at 5 s intervals.
T1 construct: expressed in transfected cells
T1 sequence (O14842 whole entry): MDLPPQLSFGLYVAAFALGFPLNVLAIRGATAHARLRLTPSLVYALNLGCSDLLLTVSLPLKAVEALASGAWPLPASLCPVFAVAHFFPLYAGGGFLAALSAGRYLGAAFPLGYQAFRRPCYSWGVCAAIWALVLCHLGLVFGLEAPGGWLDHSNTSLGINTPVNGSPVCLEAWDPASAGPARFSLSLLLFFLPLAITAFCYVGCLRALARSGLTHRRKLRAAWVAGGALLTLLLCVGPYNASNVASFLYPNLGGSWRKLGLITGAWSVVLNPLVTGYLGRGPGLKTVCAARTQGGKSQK
Assay type: cell-based
In short: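 CHO-K cells stably expressing hGPR40 were cultured 24 h at 37 °C and loaded with Fluo-4 NW for 30 min at 37 °C plus 30 min at RT. Compounds diluted in HEPES buffer were added, and calcium fluorescence was recorded for 4 min at 5 s intervals.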
Work on `CO/N=C(\COc1ccc(COc2ccc(C(C#N)CC(=O)O)cc2)cc1F)c1ccccc1` (centres unmarked) [Compound 50, Sodium 3-cyano-3-{4-[(3-fluoro-4-{[(2Z)-2-(methoxyimino)-2-phenylethyl]oxy}benzyl)oxy]phenyl}propanoate] yielded an EC50 of less than 10 nM. `CC(C)O/N=C(/c1ccccc1)c1cccc(CNc2ccc(CCC(=O)O)cc2)c1` [Compound 10, 3-{4-[(3-{(E,Z)-Phenyl[(propan-2-yloxy)imino]methyl}benzyl)amino]phenyl}propanoic acid] was tested, and the EC50 was greater than 100 nM. `CO/N=C(\COc1ccc(COc2ccc(CCC(=O)O)c(F)c2)cc1)c1ccc(C#N)cc1` [Compound 39] gave an EC50 of less than 10 nM. In the case of `CO/N=C(\COc1ccc(COc2ccc(C(C#N)CC(=O)O)c(F)c2)cc1)c1ccccc1` (centres unmarked) [Compound 77, 3-Cyano-3-{2-fluoro-4-[(4-{[(2Z)-2-(methoxyimino)-2-phenylethyl]oxy}benzyl)oxy]phenyl}propanoic acid], the EC50 is reported as less than 10 nM. Work on `CO/N=C(\COc1ccc(COc2ccc(C(C#N)CC(=O)O)cc2)cc1)c1ccc(F)cc1` (centres unmarked) [Compound 54, Sodium 3-cyano-3-{4-[(4-{[(2Z)-2-(4-fluorophenyl)-2-(methoxyimino)ethyl]oxy}benzyl)oxy]phenyl}propanoate] yielded an EC50 of 10 to 100 nM. With `CO/N=C(\COc1ccc(COc2ccc(/C=C/C(=O)O)c(-c3cc(C)on3)c2)cc1)c1ccccc1` [Compound 97, (2E,2Z)-3-{4-[(4-{[(2Z)-2-(Methoxyimino)-2-phenylethyl]oxy}benzyl)oxy]-2-(5-methyl-1,2-oxazol-3-yl)phenyl}prop-2-enoic acid] the EC50 was greater than 100 nM. Work on `CO/N=C(/COc1ccc(COc2ccc(C(C#N)CC(=O)O)cc2)cc1)C1CC1` (centres unmarked) [Compound 104, 3-Cyano-3-{4-[(4-{[(2E)-2-cyclopropyl-2-(methoxyimino)ethyl]oxy}benzyl)oxy]phenyl}propanoic acid] yielded an EC50 greater than 100 nM. For `CO/N=C(\COc1ccc(COc2ccc(C(CC(=O)O)C3CC3)cc2)cc1)c1ccccc1` (centres unmarked) [Compound 87, 3-Cyclopropyl-3-{4-[(4-{[(2Z)-2-(methoxyimino)-2-phenylethyl]oxy}benzyl)oxy]phenyl}propanoic acid], the EC50 was greater than 100 nM. `CO/N=C(/COc1ccc(COc2ccc(C(C#N)CC(=O)O)cc2)cc1)c1ccccc1` (single isomer, unassigned) [Compound 99, 3-Cyano-3-{4-[(4-{[(2E)-2-(methoxyimino)-2-phenylethyl]oxy}benzyl)oxy]phenyl}propanoic acid] showed an EC50 of 10 to 100 nM. Compound `CO/N=C(\COc1ccc(COc2ccc(CCC(=O)O)c(-c3c(C)noc3C)c2)cc1)c1ccccc1` [Compound 84, 3-{2-(3,5-Dimethyl-1,2-oxazol-4-yl)-4-[(4-{[(2E,2Z)-2-(methoxyimino)-2-phenylethyl]oxy}benzyl)oxy]phenyl}propanoic acid] has an EC50 greater than 100 nM. Work on `CO/N=C(\COc1ccc(COc2ccc(-c3c(C)noc3CC(=O)O)cc2)cc1)c1ccccc1` [Compound 69, (4-{4-[(4-{[(2Z)-2-(Methoxyimino)-2-phenylethyl]oxy}benzyl)oxy]phenyl}-3-methyl-1,2-oxazol-5-yl)acetic acid] yielded an EC50 greater than 100 nM. Work on `CON=C(COc1ccc(COc2ccc(C(C)(C)CC(=O)O)cc2)cc1)c1ccccc1` (mixture of isomers) [Compound 61, 3-{4-[(4-{[(2E,2Z)-2-(Methoxyimino)-2-phenylethyl]oxy}benzyl)oxy]phenyl}-3-methylbutanoic acid] yielded an EC50 greater than 100 nM. For `CO/N=C(\COc1ccc(COc2ccc(CCC(=O)O)cc2)cc1)c1ccccc1` [Compound 7, 3-{4-[(4-{[(2Z)-2-(Methoxyimino)-2-phenylethyl]oxy}benzyl)oxy]phenyl}propanoic acid], the EC50 was less than 10 nM. Work on `CO/N=C(\COc1ccc(COc2ccc(C3CC3C(=O)O)cc2)cc1)c1ccc(C#N)cc1` (centres unmarked) [Compound 45, 2-{4-[(4-{[(2Z)-2-(4-Cyanophenyl)-2-(methoxyimino)ethyl]oxy}benzyl)oxy]phenyl}cyclopropanecarboxylic acid] yielded an EC50 of 10 to 100 nM. Compound `C=CCO/N=C(/CC(=O)O)c1ccc(OCc2ccc(OCC(=NOC)c3ccccc3)cc2)cc1` (mixture of isomers) [Compound 121, (3Z)-3-{4-[(4-{[(2E,2Z)-2-(Methoxyimino)-2-phenylethyl]oxy}benzyl)oxy]phenyl}-3-[(prop-2-en-1-yloxy)imino]propanoic acid] has an EC50 greater than 100 nM. `O=C(O)CCc1ccc(OCc2ccc(OC/C(=N\OCc3ccccc3)c3ccccc3)cc2)cc1` [Compound 108, 3-(4-{[4-({(2E,2Z)-2-[(Benzyloxy)imino]-2-phenylethyl}oxy)benzyl]oxy}phenyl) propanoic acid] showed an EC50 of 10 to 100 nM. `CO/N=C(\COc1ccc(COc2ccc(CCC(N)=O)cc2)cc1)c1ccccc1` [Compound 120, 3-{4-[(4-{[(2Z)-2-(Methoxyimino)-2-phenylethyl]oxy}benzyl)oxy]phenyl}propanamide] gave an EC50 greater than 100 nM. `CO/N=C(\COc1ccc(COc2ccc(C(C#N)CC(=O)O)cc2)cc1)c1cccc(F)c1` (centres unmarked) [Compound 55, Sodium 3-cyano-3-{4-[(4-{[(2Z)-2-(3-fluorophenyl)-2-(methoxyimino)ethyl]oxy}benzyl)oxy]phenyl}propanoate] showed an EC50 of less than 10 nM. Compound `CO/N=C(\COc1ccc(COc2ccc(C3CC3C(=O)O)cc2)cc1)c1ccc(C#N)cc1` (single isomer, unassigned) [Compound 80, Sodium 2-{4-[(4-{[(2Z)-2-(4-cyanophenyl)-2-(methoxyimino)ethyl]oxy}benzyl)oxy]phenyl}cyclopropanecarboxylate] has an EC50 of less than 10 nM. With `CO/N=C(\COc1ccc(CNc2ccc(CCC(=O)O)cc2)cc1)c1ccccc1` [Compound 4, 3-{4-[(4-{[(2Z)-2-(Methoxyimino)-2-phenylethyl]oxy}benzyl)amino]phenyl}propanoic acid] the EC50 was 10 to 100 nM. `CO/N=C(\COc1ccc(COc2ccc(C(C#N)CC(=O)O)c(OC)c2)cc1)c1ccccc1` (centres unmarked) [Compound 83, 3-Cyano-3-{2-methoxy-4-[(4-{[(2Z)-2-(methoxyimino)-2-phenylethyl]oxy}benzyl)oxy]phenyl}propanoic acid] gave an EC50 of 10 to 100 nM. Compound `CO/N=C(\COc1ccc(COc2ccc(C(C#N)CC(=O)O)cc2)cc1OC)c1ccccc1` (centres unmarked) [Compound 26, 3-Cyano-3-{4-[(3-methoxy-4-{[(2Z)-2-(methoxyimino)-2-phenylethyl]oxy}benzyl)oxy]phenyl}propanoic acid] has an EC50 of 10 to 100 nM. Compound `CO/N=C(\COc1ccc(CNc2ccc([C@@H]3C[C@H]3C(=O)O)cc2)cc1)c1ccccc1C` [Compound 15, (1R,2R)-2-{4-[(4-{[(2Z)-2-(Methoxyimino)-2-(2-methylphenyl)ethyl]oxy}benzyl)amino]phenyl}cyclopropanecarboxylic acid] has an EC50 of 10 to 100 nM. Compound `CO/N=C(\COc1ccc(COc2ccc(C(CC(=O)O)C(N)=O)cc2)cc1)c1ccccc1` (centres unmarked) [Compound 93, 4-Amino-3-{4-[(4-{[(2Z)-2-(methoxyimino)-2-phenylethyl]oxy}benzyl)oxy]phenyl}-4-oxobutanoic acid] has an EC50 greater than 100 nM. In the case of `CO/N=C(\COc1ccc(COc2ccc(C(C#N)CC(=O)O)cc2)cc1)c1ccc2c(c1)CCC2` (centres unmarked) [Compound 103, 3-Cyano-3-{4-[(4-{[(2Z)-2-(2,3-dihydro-1H-inden-5-yl)-2-(methoxyimino)ethyl]oxy}benzyl)oxy]phenyl}propanoic acid], the EC50 is reported as 10 to 100 nM. `CO/N=C(/COc1ccc(COc2ccc(CCC(=O)O)cc2)cc1)c1ccc(C#N)cc1` (racemic) [Compound 28, 3-{4-[(4-{[(2E,2Z)-2-(4-Cyanophenyl)-2-(methoxyimino)ethyl]oxy}benzyl)oxy]phenyl}propanoic acid] gave an EC50 of 10 to 100 nM.

From patent US9278915B2, “Agonists of GPR40” (CONNEXIOS LIFE SCIENCES PVT LTD, priority 2010, dated 2016)
